Assay results from ChEMBL document CHEMBL1201862, “PubChem BioAssay data set” (2004).
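Exposure lasted 48 hours, with cells grown in 96-well plates and compounds tested at five concentrations. GI50: concentration for 50% inhibition of growth.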 Activity calls are given as the source filed them. Rule as the data show it: active = GI50 up to about 1.1 µM and inactive = higher.

What was measured:
Experiment in all cases: NCI-60 cell line screen, 48 h
[1] = system: BT-549
[2] = system: SF-295
[3] = system: A498
[4] = system: HL-60
[5] = system: 786-0
[6] = system: UACC-257
[7] = system: CAKI-1
[8] = system: OVCAR-5
[9] = system: PC-3
[10] = system: NCI-H522
[11] = system: Hs-578T
[12] = system: Malme-3M
[13] = system: NCI-H23
[14] = system: LOX IMVI
[15] = system: OVCAR-3
[16] = system: M14
[17] = system: NCI/ADR-RES
[18] = system: MDA-MB-231
[19] = system: SK-MEL-5
[20] = system: SK-MEL-2
[21] = system: KM12
[22] = system: COLO 205
[23] = system: MDA-N
[24] = system: T47D
[25] = system: TK-10
[26] = system: RPMI-8226
[27] = system: HCT-116
[28] = system: EKVX
[29] = system: UO-31
[30] = system: SR
[31] = system: UACC-62
[32] = system: MCF7
[33] = system: A549
[34] = system: NCI-H460
[35] = system: SK-MEL-28
[36] = system: IGROV-1
[37] = system: SNB-19
[38] = system: DU-145
[39] = system: ACHN
[40] = system: HCT-15
[41] = system: HOP-62
[42] = system: MDA-MB-435
[43] = system: SW-620
[44] = system: RXF 393
[45] = system: HOP-92
[46] = system: SF-268
[47] = system: SK-OV-3
[48] = system: HCC 2998
[49] = system: OVCAR-8
[50] = system: SF-539
[51] = system: NCI-H226
[52] = system: SN12C
[53] = system: OVCAR-4
[54] = system: K562
[55] = system: U-251
[56] = system: HT-29
[57] = system: MOLT-4
[58] = system: SNB-75
[59] = system: CCRF-CEM

## CS(=N)(=O)CCC(N)P(=O)(O)O (stereo not given)
[1]
  GI50: > 100 µM (inactive)
[2]
  GI50: > 100 µM (inactive)
[3]
  GI50: > 100 µM (inactive)
[4]
  GI50: > 100 µM (inactive)
[5]
  GI50: > 100 µM (inactive)
[6]
  GI50: > 100 µM (inactive)
[7]
  GI50: > 100 µM (inactive)
[8]
  GI50: > 100 µM (inactive)
[9]
  GI50: > 100 µM (inactive)
[10]
  GI50: > 100 µM (inactive)
[11]
  GI50: > 100 µM (inactive)
[12]
  GI50: > 100 µM (inactive)
[13]
  GI50: > 100 µM (inactive)
[14]
  GI50: > 100 µM (inactive)
[15]
  GI50: > 100 µM (inactive)
[16]
  GI50: > 100 µM (inactive)
[17]
  GI50: > 100 µM (inactive)
[18]
  GI50: > 100 µM (inactive)
[19]
  GI50: > 100 µM (inactive)
[20]
  GI50: > 100 µM (inactive)
[21]
  GI50: > 100 µM (inactive)
[22]
  GI50: > 100 µM (inactive)
[23]
  GI50: > 100 µM (inactive)
[24]
  GI50: > 100 µM (inactive)
[25]
  GI50: > 100 µM (inactive)
[26]
  GI50: > 100 µM (inactive)
[27]
  GI50: > 100 µM (inactive)
[28]
  GI50: > 100 µM (inactive)
[29]
  GI50: > 100 µM (inactive)
[30]
  GI50: > 100 µM (inactive)
[31]
  GI50: > 100 µM (inactive)
[32]
  GI50: > 100 µM (inactive)
[33]
  GI50: > 100 µM (inactive)
[34]
  GI50: > 100 µM (inactive)
[35]
  GI50: > 100 µM (inactive)
[36]
  GI50: > 100 µM (inactive)
[37]
  GI50: > 100 µM (inactive)
[38]
  GI50: > 100 µM (inactive)
[39]
  GI50: > 100 µM (inactive)
[40]
  GI50: > 100 µM
[41]
  GI50: > 100 µM (inactive)
[42]
  GI50: > 100 µM (inactive)
[43]
  GI50: > 100 µM (inactive)
[44]
  GI50: > 100 µM (inactive)
[45]
  GI50: > 100 µM (inactive)
[46]
  GI50: > 100 µM (inactive)
[47]
  GI50: > 100 µM (inactive)
[48]
  GI50: > 100 µM (inactive)
[49]
  GI50: > 100 µM (inactive)
[50]
  GI50: > 100 µM (inactive)
[51]
  GI50: > 100 µM (inactive)
[52]
  GI50: > 100 µM (inactive)
[53]
  GI50: > 100 µM (inactive)
[54]
  GI50: > 100 µM (inactive)
[55]
  GI50: > 100 µM (inactive)
[56]
  GI50: > 100 µM (inactive)
[57]
  GI50: > 100 µM (inactive)

## CCOC(=O)/C=C1\C[C@H](NC(=O)OCc2ccccc2)C(=O)N1CC(=O)OCC
[1]
  GI50: > 100 µM (inactive)
[2]
  GI50: > 100 µM (inactive)
[3]
  GI50: > 100 µM (inactive)
[4]
  GI50: > 100 µM (inactive)
[58]
  GI50: > 100 µM (inactive)
[5]
  GI50: > 100 µM (inactive)
[6]
  GI50: > 100 µM (inactive)
[7]
  GI50: > 100 µM (inactive)
[8]
  GI50: > 100 µM (inactive)
[9]
  GI50: > 100 µM (inactive)
[10]
  GI50: > 100 µM (inactive)
[11]
  GI50: > 100 µM (inactive)
[12]
  GI50: > 100 µM (inactive)
[59]
  GI50: > 100 µM (inactive)
[13]
  GI50: > 100 µM (inactive)
[15]
  GI50: > 100 µM (inactive)
[16]
  GI50: > 100 µM (inactive)
[17]
  GI50: > 100 µM (inactive)
[18]
  GI50: > 100 µM (inactive)
[19]
  GI50: > 100 µM (inactive)
[20]
  GI50: > 100 µM (inactive)
[21]
  GI50: > 100 µM (inactive)
[22]
  GI50: > 100 µM (inactive)
[23]
  GI50: > 100 µM (inactive)
[24]
  GI50: > 100 µM (inactive)
[25]
  GI50: > 100 µM (inactive)
[26]
  GI50: > 100 µM (inactive)
[27]
  GI50: > 100 µM (inactive)
[28]
  GI50: > 100 µM (inactive)
[29]
  GI50: > 100 µM (inactive)
[30]
  GI50: > 100 µM (inactive)
[31]
  GI50: > 100 µM (inactive)
[32]
  GI50: > 100 µM (inactive)
[33]
  GI50: > 100 µM (inactive)
[34]
  GI50: > 100 µM (inactive)
[35]
  GI50: > 100 µM (inactive)
[36]
  GI50: > 100 µM (inactive)
[37]
  GI50: > 100 µM (inactive)
[38]
  GI50: > 100 µM (inactive)
[39]
  GI50: > 100 µM (inactive)
[40]
  GI50: > 100 µM
[41]
  GI50: > 100 µM (inactive)
[42]
  GI50: > 100 µM (inactive)
[43]
  GI50: > 100 µM (inactive)
[44]
  GI50: 61.2 µM (inactive)
[45]
  GI50: > 100 µM (inactive)
[46]
  GI50: > 100 µM (inactive)
[47]
  GI50: > 100 µM (inactive)
[48]
  GI50: > 100 µM (inactive)
[49]
  GI50: > 100 µM (inactive)
[50]
  GI50: > 100 µM (inactive)
[51]
  GI50: > 100 µM (inactive)
[52]
  GI50: > 100 µM (inactive)
[53]
  GI50: > 100 µM (inactive)
[54]
  GI50: > 100 µM (inactive)
[55]
  GI50: > 100 µM (inactive)
[56]
  GI50: > 100 µM (inactive)
[57]
  GI50: > 100 µM (inactive)
